Source: patent publication US20170226139A1, “CRYSTALLINE SALTS OF (Z)-O-OCTADEC-9-EN-1-YL O,O-DIHYDROGEN PHOSPHOROTHIOATE” (priority 2013, published 2017)
Where two headings read alike, the source gives them in different places.

Key:
[1] = tested on: Cultured human peripheral lymphocytes cells; assay type: cell-based; details: for Aberrant Cells Mean % −g: excluding gaps only; for Aberrant Cells Mean % +g: plus cells with gaps only
Protocol: Cultured human peripheral lymphocytes cells were incubated in vitro with Rx100.Lysine for 3 hours with and without S9 mix and for 24 hours without S9 mix. For Rx100.Lysine, concentrations ranging from 3.39 to 500 μg/mL were examined in both treatment conditions. Adjusting for purity, the concentration ranges were 3.06 to 452 μg/mL. […] This increase was just above the historical vehicle control range (0 to 2.0%) for 3 hour treatment without metabolic activation. Thus the response observed is a weak positive and of questionable biological significance cytotoxicity was present just below the acceptable limit of 50±5% for this assay.
Thus, Rx100.Lysine was considered negative for inducing chromosome aberrations, polyploidy and endoreduplication, in cultured human peripheral blood lymphocytes following a 3 hour treatment with and a 24 treatment without metabolic activation.

[2] = Single subcutaneous dose pharmacokinetics in irradiated and unirradiated mice; assay type: in vivo, C57BL/6 mice; details: single SC dose 1 mg/kg
Excerpt: We performed a randomized, open-label, single-dose, four-arm, subcutaneously-administered, study of the pharmacokinetics of Rx100.Ammonia and Rx100.Lysine in irradiated and unirradiated C57BL/6 mice to evaluate the effect of salt form and irradiation on extravascular pharmacokinetics. The purpose of this study was to evaluate the pharmacokinetic parameters for two salt forms of Rx100 (Lysine and Ammonia) in healthy and PB irradiated (IR) mice when administered as a single dose. Each animal received a 1 mg/kg dose of Rx100.Lysine or Rx100.Ammonia. The animals receiving Rx100.Lysine or Rx100.Ammonia after irradiation were dosed 26±2 hours after irradiation and sampling times are relative to the time of test article dosing.
More specifically, randomized, acclimated, C57BL/6 mice were administered Rx100.Lysine or Rx100.Ammonia (10 mM L-histidine in sterile water for injection, or 1% ethanol, 2% propylene glycol in PBS, respectively) as a single dose as indicated in Table 25.
Blood was collected from 4 male and 4 female mice via cardiac puncture at pre-defined time points relative to test article dosing (0.5, 1, 2, 4, 6, 8, 12, 18, 24, and 48 hours) and collected into micro plasma separator vials (BD Microtainer®) containing lithium heparin. Blood was maintained on ice until centrifugation and subsequent processing. Blood draws were a terminal procedure. Plasma was frozen at −80° C. until submitted for bioanalysis. Sample collection was completed in September 2012. Samples were transferred to Covance in December 2013, and sample analysis was complete in the first quarter of 2014.
A total of 160 male and 160 female C57BL/6 10-12 week old mice were used in this study. Animals were randomized with weight stratification into treatment groups and given a second ear tag. Animals were acclimated for 16-19 days (See below Table 26). Prior to irradiation or dosing (in non-irradiated groups), animals were weighed a second time which was the basis of the animal dose delivered.
TLDs were used for dosimetry and confirmation of the delivered dose. TLDs were analyzed by MD Anderson and have a +/−5% accuracy. A total of 19 dosimeters were used with a mean measured dose of 15.33±0.166 Gy.
Analysis was performed using qualified and validated Phoenix® WinNonlin® Software. The final data provided was imported into Phoenix® WinNonlin®. All data presented in the tables and figures within the results section of this report were generated using the validated Phoenix® WinNonlin® Software.

[3] = 3-hour treatment without metabolic activation, positive control 1.00 μg/mL
[4] = 24-hour treatment without metabolic activation, positive control 0.300 μg/mL
[5] = + IR (irradiated mice), whole group (not split by gender), 1 mg/kg
[6] = healthy mice, whole group (not split by gender), 1 mg/kg
[7] = irradiated mice (15.6 Gy, dosed 26 ± 2 h after), F, 1 mg/kg
[8] = irradiated mice (15.6 Gy, dosed 26 ± 2 h after), M, 1 mg/kg
[9] = 3-hour treatment with metabolic activation, positive control 25.0 μg/mL

Q: For `CO[C@@]12[C@H](COC(N)=O)C3=C(C(=O)C(C)=C(N)C3=O)N1C[C@@H]1N[C@@H]12` [Mitomycin C], which “Endoreduplicate Mean %” value [1, 3] is on record?
A: The value was 0.0%.

Q: And the “Polyploidy Mean %” value [1, 3]?
A: The value was 0.0%.

Q: And the “Aberrant Cells Mean % −g” value [1, 3]?
A: The value was 57.0%.

Q: And the “Aberrant Cells Mean % +g” value [1, 3]?
A: The value was 59.0%.

Q: What about the “Endoreduplicate Mean %” value [1, 4] of the same molecule?
A: The value was 0.0%.

Q: What about the “Polyploidy Mean %” value [1, 4] of the same molecule?
A: Its value is 0.0%.

Q: What about the “Aberrant Cells Mean % −g” value [1, 4] of the same molecule?
A: The value was 58.0%.

Q: What about the “Aberrant Cells Mean % +g” value [1, 4] of the same molecule?
A: Its value is 61.0%.

Q: With `CCCCCCCC/C=C\CCCCCCCCOP(O)(O)=S` [Rx100.Ammonia, (Z)—O-octadec-9-en-1-yl O,O-dihydrogen phosphorothioate] as the molecule, how does the CL ([2]; IR females) read?
A: Its CL is 10.5 mL/min/kg.

Q: What about the AUC ([2]; IR females, 1 mg/kg) of the same molecule?
A: The AUC was 1591 ng·h/mL.

Q: And the CL ([2]; IR males)?
A: The CL was 9.68 mL/min/kg.

Q: And the AUC ([2]; IR males, 1 mg/kg)?
A: Its AUC is 1721 ng·h/mL.

Q: What about the “half-life, change after irradiation” value ([2]; IR versus healthy mice) of the same molecule?
A: Its value is “no change”.

Q: And the CL ([2]; healthy females)?
A: The CL was 14.5 mL/min/kg.

Q: And the “exposure (AUC)” value ([2]; healthy females, 1 mg/kg)?
A: The value was 1152 ng·h/mL.

Q: And the CL ([2]; healthy males)?
A: The CL was 11 mL/min/kg.

Q: What about the AUC ([2]; healthy males, 1 mg/kg) of the same molecule?
A: The AUC was 1521 ng·h/mL.

Q: What about the Tmax ([2]; healthy mice, 1 mg/kg) of the same molecule?
A: The Tmax was 30 to 60 min.

Q: And the Tmax ([2]; irradiated (IR) mice, 26±2 hours after 15.6 Gy, 1 mg/kg)?
A: The Tmax was 30 to 60 min.

Q: And the AUCINF_obs [2, 5]?
A: Its AUCINF_obs is 1644.99 ng·h/mL.

Q: And the CLss_F [2, 5]?
A: Its CLss_F is 10.132 mL/min/kg.

Q: And the Cmax [2, 5]?
A: Its Cmax is 466.71 ng/mL.

Q: And the HL_Lambda_z [2, 5]?
A: Its HL_Lambda_z is 1.37 h.

Q: And the Vz_F [2, 5]?
A: Its Vz_F is 1.20034 L/kg.

Q: What about the AUCINF_obs ([2]; healthy mice, F, 1 mg/kg) of the same molecule?
A: Its AUCINF_obs is 1152.19 ng·h/mL.

Q: What about the CLss_F ([2]; healthy mice, F, 1 mg/kg) of the same molecule?
A: The CLss_F was 14.466 mL/min/kg.

Q: What about the Vz_F ([2]; healthy mice, F, 1 mg/kg) of the same molecule?
A: The Vz_F was 1.72837 L/kg.

Q: And the AUCINF_obs ([2]; healthy mice, M, 1 mg/kg)?
A: The AUCINF_obs was 1521.44 ng·h/mL.

Q: And the CLss_F ([2]; healthy mice, M, 1 mg/kg)?
A: Its CLss_F is 10.954 mL/min/kg.

Q: What about the Vz_F ([2]; healthy mice, M, 1 mg/kg) of the same molecule?
A: Its Vz_F is 1.3407 L/kg.

Q: What about the AUCINF_obs [2, 6] of the same molecule?
A: The AUCINF_obs was 1342.00 ng·h/mL.

Q: And the CLss_F [2, 6]?
A: The CLss_F was 12.419 mL/min/kg.

Q: What about the Cmax [2, 6] of the same molecule?
A: Its Cmax is 383.75 ng/mL.

Q: What about the HL_Lambda_z [2, 6] of the same molecule?
A: The HL_Lambda_z was 1.78 h.

Q: What about the Vz_F [2, 6] of the same molecule?
A: Its Vz_F is 1.91818 L/kg.

Q: What about the AUCINF_obs [2, 7] of the same molecule?
A: Its AUCINF_obs is 1591.05 ng·h/mL.

Q: What about the CLss_F [2, 7] of the same molecule?
A: The CLss_F was 10.475 mL/min/kg.

Q: What about the Vz_F [2, 7] of the same molecule?
A: The Vz_F was 1.22969 L/kg.

Q: And the AUCINF_obs [2, 8]?
A: The AUCINF_obs was 1720.87 ng·h/mL.

Q: What about the CLss_F [2, 8] of the same molecule?
A: Its CLss_F is 9.685 mL/min/kg.

Q: What about the Vz_F [2, 8] of the same molecule?
A: The Vz_F was 1.27697 L/kg.

Q: What does the source list for `O=P1(N(CCCl)CCCl)NCCCO1` (stereo not shown) [cyclophosphamide, reference compound]?
A: Cytotoxicity (% of Control) [1, 9]: 12 % of Control; Endoreduplicate Mean % [1, 9]: 0.0%; Polyploidy Mean % [1, 9]: 0.0%; Aberrant Cells Mean % −g [1, 9]: 58.0%; Aberrant Cells Mean % +g [1, 9]: 65.0%
